The values below come from BindingDB's records for doi:10.1021/jm00163a069 (Merck Sharp & Dohme Research Laboratories, 1990).

The nature of the test: Inhibition of binding of [125I]CCK-8 to Cholecystokinin type B receptor in guinea pig brain tissues.

Where only a bound is given, the exact number is not on record here.

In the case of `O=C(NCC1CNc2ccccc2C(c2ccccc2F)=N1)C(O)c1ccccc1` (stereo unspecified), the half-inhibitory concentration (IC50) is > 100 µM.

The IC50 is the concentration that inhibits the measured activity by half. A lower IC50 goes with greater potency in that assay.
